# According to patent US12186332B2, “Methods for overcoming WNT/beta-catenin anti-cancer resistance in leukemia stem cells” (STOWERS INSTITUTE FOR MEDICAL RESEARCH, priority 2019, dated 2025):
# How the values were obtained:
# [1] = tested on: pS^552-β-catenin; assay: Western analysis of compound-treated TOP and FOP cells; assay type: cell-based
# Protocol: TOP and FOP cells were treated with thioguanosine at EC90, EC50 and EC25 derived from FIG. 2A for 48 hours, washed and flash frozen for Western analysis. EC50 data is shown.
# TOP and FOP cells were treated with compound 0105375 at EC90, EC50 and EC25 derived from FIG. 2B for 48 hours, washed and flash frozen for Western analysis. EC50 data is shown.
# TOP and FOP cells were treated with doxorubicin at EC90, EC50 and EC25 derived from FIG. 2C for 48 hours, washed and flash frozen for Western analysis. EC50 data is shown.
# [2] = tested on: LSCs and HSPCs transcriptome; assay: RNA-seq of populations sorted from treated leukemic mice; assay type: in vivo, mouse
# Protocol: HSPCs, LSCs, and blast cells were sorted by FACS at […] post-treatment of leukemic mice; representative sorting gates are shown. Note distinct LSC population (compare to isotype) in vehicle versus low-dose DXR+chemotherapy treatment when LSCs show very low frequency. Other plots are from vehicle control. To obtain sufficient cells from the clinical DXR sample, the 5×4 […] DXR daily dosing schedule was used.
# Data from two biological replicates of each, differing by <0.3 standard deviations, are shown.
# Cohorts of leukemic mice were treated with vehicle, chemotherapy, [Low]DXR, clinical-dose DXR or chemotherapy+[Low]DXR as in FIG. 8. At 10 days post-treatment (day 1=start of treatment), blast cells, LSCs, and HSPCs were sorted using stringent gates (see FIG. 4A) for these populations. For each population, two biological replicates were made with 1-3 technical replicates each. Each biological replicate was a pool of sorted cells from 4-5 male and 4-5 female mice. Technical replicates were samples of sorted cells from each biological replicate. 1,000 cells per sample were sorted into 96-well plates with 7 μl lysis buffer containing RNase inhibitor (2 U/μl) from BM. First-strand cDNA synthesis and cDNA libraries were constructed using the SMARTer ultra low input RNA kit for sequencing—v3 (Clontech) following the manufacturer's instructions. cDNA quality was determined by Agilent high sensitivity DNA kit on Agilent 2100 BioAnalyzer (Agilent Technologies). Libraries were sequenced at 50 bp on the Illumina HiSeq 2500. Reads were aligned to UCSC mm10 with Tophat 2.1.1 (Kim et al. 2013), using gene models from Ensembl 80. Read counts per gene were obtained with HTSeq-count 0.6.0 (Anders et al. 2015). Analysis was done in R with the EdgeR package (Robinson et al. 2010) using default methods. […] Data can be accessed at https://www.ncbi.nlm.nih.qov/geo/query/acc.cqi?acc=GSE105049.
# [3] = tested on: Wnt-signaling reporter activity (TCF/Lef:H2B-GFP); assay: TCF/Lef:H2B-GFP reporter mice; assay type: in vivo, mouse; settings: low-dose DXR (legend: [Low]nanoDXR, 3 hours post-injection)
# Excerpt: Percent of TCF/Lef:H2B-GFP^+ cells for each population are indicated.
# [4] = tested on: patient BM with or without chemoresistant pS^552-β-cat^+ LSCs; assay: 2° PDX recipients treated with low-dose DXR ([Low]nanoDXR); assay type: in vivo, human
# Protocol: (§1) FIG. 12F is the Kaplan-Meier survival curve for 2° PDX recipients treated with vehicle or [Low]nanoDXR. Bone marrow was harvested from 1° recipients of diagnostic BM, transplanted into a larger set of 2° PDX recipients and treated with [Low] NanoDXR starting at day 14 post-transplant and continuing for up to 10 weeks.
# as §1, with “12G” for “12F”, “post-chemotherapy” for “diagnostic”
# Human CD45^+ and human LSC engraftment was determined after succumbing to leukemia or at experimental endpoint. Graphs indicate frequency (%)+Std. Dev.
# as §1, with “12L” for “12F”, “BM (FIG. 12D),” for “BM,”
# as §1, with “12M” for “12F”, “BM (FIG. 12E),” for “BM,”
# Human CD45^+ and human LSC engraftment was determined after succumbing to leukemia or at experimental endpoint. Graphs indicate frequency (%)+Std. Dev. (N.S.=not significant).
# All patient samples were obtained under research ethics board approval with informed consent. Pediatric patient BM was transplanted into NSG mice. When 1° transplant mice succumbed to leukemia, bone marrow was harvested, frozen for later use, and transplanted into a larger set of 2° NSG recipients. […] Health was monitored independently by technicians blinded to any hypothetical outcome. […]
# [5] = particularly low concentrations, 48 hours
# [6] = Pt samples containing chemoresistant pS552-β-cat+ LSCs
compound,measurement,setting,value
"COc1cccc2c1C(=O)c1c(O)c3c(c(O)c1C2=O)C[C@@](O)(C(=O)CO)C[C@@H]3O[C@H]1C[C@H](N)[C@H](O)[C@H](C)O1 [DXR, doxorubicin]",inhibition of pS552-β-catenin relative to pan β-catenin (HTS candidates),[1],could inhibit pS^552-β-catenin with less effect on pan β-catenin
same,effect on β-catenin generally,[1]; [5],only minimal effect
same,pS552-β-catenin level,[1]; [5],inhibited
same,Hallmark MYC targets in LSCs,[2]; [Low]DXR,reduced
same,most highly enriched terms in LSCs compared to control or chemotherapy,[2]; [Low]DXR,upregulation of immune-related terms
same,"expression of resistance pathways, LSCs versus HSPCs",[2]; clinical DXR,increased expression of oncogenic signaling and other resistance pathways
same,Wnt-signaling reporter activity,[3],significantly inhibits
same,leukemia engraftment and LSC frequency compared to vehicle control,[4]; [6],reduced leukemia engraftment and LSC frequency
same,survival compared to vehicle control,[4]; [6],significantly improved survival
same,"survival, leukemia engraftment or LSC frequency",[4]; Pt samples lacking chemoresistant pS552-β-cat+ LSCs,no significant difference
